Experimental data as given in ChEMBL document CHEMBL1955749, “Synthesis and anti-influenza activity of aminoalkyl rupestonates” (Bioorg Med Chem Lett, 2012).
pIC50: −log10 of the molar value. Activity calls are given as the source filed them. No cut-off for these calls is given here.

Legend:
Influenza A virus [1] = assay: Antiinfluenza activity against influenza A virus H1N1 infected in MDCK cells assessed as inhibition of virus-induced cytopathic effect after 36 hrs; format: functional, organism-based
[2] = Selectivity index, ratio of TC50 for MDCK cells to IC50 for influenza B virus; format: toxicity, cell-based; details: dog, read-out: Selectivity Index
Influenza A virus [3] = assay: Antiinfluenza activity against influenza A virus H3N2 infected in MDCK cells assessed as inhibition of virus-induced cytopathic effect after 36 hrs; format: functional, organism-based
[4] = Selectivity index, ratio of TC50 for MDCK cells to IC50 for influenza A virus H3N2; format: toxicity, cell-based; details: dog, read-out: Selectivity Index
[5] = Cytotoxicity against MDCK cells; format: cell-based, Canis lupus familiaris; details: dog, read-out: TC50 (the source's name)
Influenza B virus = assay: Antiinfluenza activity against influenza B virus infected in MDCK cells assessed as inhibition of virus-induced cytopathic effect after 36 hrs; format: functional, organism-based
[6] = Selectivity index, ratio of TC50 for MDCK cells to IC50 for influenza A virus H1N1; format: toxicity, cell-based; details: dog, read-out: Selectivity Index
Influenza A virus [7] = assay: Antiinfluenza activity against influenza A virus H3N2 infected in MDCK cells assessed as inhibition of virus-induced cytopathic effect at 0.15 to 1.37 ug/ml after 36 hrs; format: functional, organism-based

## C=C(C(=O)OCCN1CCN(c2ccccc2)CC1)[C@@H]1CC[C@H](C)[C@@H]2CC(=O)C(C)=C2C1
Influenza A virus [1]
  pIC50: 4.31
[2]
  selectivity ratio: 9
Influenza A virus [3]
  pIC50: 4.31
[4]
  selectivity ratio: 9
[5]
  CC50: 445 µM
Influenza B virus
  pIC50: 4.31
[6]
  selectivity ratio: 9

## C=C(C(=O)OCCCn1cncn1)[C@@H]1CC[C@H](C)[C@@H]2CC(=O)C(C)=C2C1
Influenza A virus [1]
  pIC50: 4.62
Influenza A virus [3]
  pIC50: 4.46
[4]
  selectivity ratio: 9
[5]
  CC50: 311 µM
Influenza B virus
  pIC50: < 4.46
[6]
  selectivity ratio: 13

## C=C(C(=O)OCCCBr)[C@@H]1CC[C@H](C)[C@@H]2CC(=O)C(C)=C2C1
Influenza A virus [1]
  pIC50: < 4.00
Influenza A virus [3]
  pIC50: < 4.00
[5]
  CC50: 436 µM
Influenza B virus
  pIC50: < 4.00

## C=C(C(=O)OCCCCCCCCN1CCN(c2ccccc2)CC1)[C@@H]1CC[C@H](C)[C@@H]2CC(=O)C(C)=C2C1
Influenza A virus [1]
  pIC50: 4.03
Influenza A virus [3]
  pIC50: < 3.80
[5]
  CC50: 333 µM
Influenza B virus
  pIC50: < 3.80
[6]
  selectivity ratio: 3.6

## C=C(C(=O)OCCBr)[C@@H]1CC[C@H](C)[C@@H]2CC(=O)C(C)=C2C1
Influenza A virus [1]
  pIC50: < 3.50
Influenza A virus [3]
  pIC50: < 3.50
[5]
  CC50: 1360 µM
Influenza B virus
  pIC50: < 3.50

## CCOC(=O)C1=C[C@@H](OC(CC)CC)[C@H](NC(C)=O)[C@@H](N)C1 [OSELTAMIVIR PHOSPHATE]
Influenza A virus [1]
  pIC50: 4.81
Influenza A virus [3]
  pIC50: 5.96
[4]
  selectivity ratio: 1140
[5]
  CC50: 1260 µM
Influenza B virus
  pIC50: < 3.30
[6]
  selectivity ratio: 81.3

## C=C(C(=O)OCCCN1CCN(C)CC1)[C@@H]1CC[C@H](C)[C@@H]2CC(=O)C(C)=C2C1
Influenza A virus [1]
  pIC50: < 4.02
Influenza A virus [3]
  pIC50: < 4.02
[5]
  CC50: 667 µM
Influenza B virus
  pIC50: < 4.02

## C=C(C(=O)OCCCCN1CCN(c2ccccc2)CC1)[C@@H]1CC[C@H](C)[C@@H]2CC(=O)C(C)=C2C1
Influenza A virus [1]
  pIC50: 4.10
Influenza A virus [3]
  pIC50: < 4.10
[5]
  CC50: 415 µM
Influenza B virus
  pIC50: < 4.10
[6]
  selectivity ratio: 5.2

## C=C(C(=O)OCCCCCCCCn1cncn1)[C@@H]1CC[C@H](C)[C@@H]2CC(=O)C(C)=C2C1
Influenza A virus [1]
  pIC50: 5.14
[2]
  selectivity ratio: 62.9
Influenza A virus [3]
  pIC50: 5.28
[4]
  selectivity ratio: 38.8
[5]
  CC50: 202 µM
Influenza B virus
  pIC50: 5.49
[6]
  selectivity ratio: 28

## C=C(C(=O)OCCCCCN1CCN(C)CC1)[C@@H]1CC[C@H](C)[C@@H]2CC(=O)C(C)=C2C1
Influenza A virus [1]
  pIC50: 4.77
[2]
  selectivity ratio: 10.1
Influenza A virus [3]
  pIC50: 4.69
[4]
  selectivity ratio: 10.1
[5]
  CC50: 207 µM
Influenza B virus
  pIC50: 4.69
[6]
  selectivity ratio: 12.1

## C=C(C(=O)OCCCCCCCCBr)[C@@H]1CC[C@H](C)[C@@H]2CC(=O)C(C)=C2C1
Influenza A virus [1]
  pIC50: 4.91
Influenza A virus [3]
  pIC50: 4.85
[4]
  selectivity ratio: 10.4
[5]
  CC50: 146 µM
Influenza B virus
  pIC50: < 4.55
[6]
  selectivity ratio: 11.8

## C=C(C(=O)OCCCCCCCCCCN1CCN(c2ccccc2)CC1)[C@@H]1CC[C@H](C)[C@@H]2CC(=O)C(C)=C2C1
Influenza A virus [1]
  pIC50: 5.62
Influenza A virus [7]
  inhibition: Active
Influenza A virus [3]
  pIC50: 4.03
[4]
  selectivity ratio: 4.9
[5]
  CC50: 456 µM
Influenza B virus
  pIC50: < 3.82
[6]
  selectivity ratio: 188

## C=C(C(=O)OCCCCCCCCN1CCN(C)CC1)[C@@H]1CC[C@H](C)[C@@H]2CC(=O)C(C)=C2C1
Influenza A virus [1]
  pIC50: < 4.57
Influenza A virus [3]
  pIC50: < 4.57
[5]
  CC50: 188 µM
Influenza B virus
  pIC50: < 4.57

## C=C(C(=O)OCCCCCCn1cncn1)[C@@H]1CC[C@H](C)[C@@H]2CC(=O)C(C)=C2C1
Influenza A virus [1]
  pIC50: 4.32
Influenza A virus [3]
  pIC50: 4.83
[4]
  selectivity ratio: 8
[5]
  CC50: 120 µM
Influenza B virus
  pIC50: < 4.51
[6]
  selectivity ratio: 2.48

## C=C(C(=O)OCCCCCCBr)[C@@H]1CC[C@H](C)[C@@H]2CC(=O)C(C)=C2C1
Influenza A virus [1]
  pIC50: 4.40
[2]
  selectivity ratio: 9
Influenza A virus [3]
  pIC50: 4.28
[4]
  selectivity ratio: 9
[5]
  CC50: 469 µM
Influenza B virus
  pIC50: 4.28
[6]
  selectivity ratio: 11.8

## C=C(C(=O)OCCCCCCCCCCN1CCN(C)CC1)[C@@H]1CC[C@H](C)[C@@H]2CC(=O)C(C)=C2C1
Influenza A virus [1]
  pIC50: 5.43
Influenza A virus [7]
  inhibition: Active
Influenza A virus [3]
  pIC50: 5.28
[4]
  selectivity ratio: 34
[5]
  CC50: 177 µM
Influenza B virus
  pIC50: < 4.60
[6]
  selectivity ratio: 47.6

## C=C(C(=O)OCCCCN1CCN(C)CC1)[C@@H]1CC[C@H](C)[C@@H]2CC(=O)C(C)=C2C1
Influenza A virus [1]
  pIC50: 4.99
Influenza A virus [3]
  pIC50: 4.15
[4]
  selectivity ratio: 9
[5]
  CC50: 644 µM
Influenza B virus
  pIC50: < 4.04
[6]
  selectivity ratio: 62.8

## C=C(C(=O)O)[C@@H]1CC[C@H](C)[C@@H]2CC(=O)C(C)=C2C1 [PECHUELOIC ACID]
Influenza A virus [1]
  pIC50: < 2.87
Influenza A virus [3]
  pIC50: 4.59
[4]
  selectivity ratio: 181
[5]
  CC50: 4650 µM
Influenza B virus
  pIC50: < 2.39

## C=C(C(=O)OCCCCCn1cncn1)[C@@H]1CC[C@H](C)[C@@H]2CC(=O)C(C)=C2C1
Influenza A virus [1]
  pIC50: 5.13
[2]
  selectivity ratio: 38.9
Influenza A virus [3]
  pIC50: 4.76
[4]
  selectivity ratio: 38.9
[5]
  CC50: 672 µM
Influenza B virus
  pIC50: 4.76
[6]
  selectivity ratio: 90.8

## NC(=O)c1ncn([C@@H]2O[C@H](CO)[C@@H](O)[C@H]2O)n1 [RIBAVIRIN]
Influenza A virus [1]
  pIC50: 5.72
[2]
  selectivity ratio: 86.9
Influenza A virus [3]
  pIC50: 5.41
[4]
  selectivity ratio: 329
[5]
  CC50: 1280 µM
Influenza B virus
  pIC50: 4.83
[6]
  selectivity ratio: 666

## C=C(C(=O)OCCCCCCN1CCN(C)CC1)[C@@H]1CC[C@H](C)[C@@H]2CC(=O)C(C)=C2C1
Influenza A virus [1]
  pIC50: < 5.02
Influenza A virus [3]
  pIC50: < 5.02
[5]
  CC50: 86 µM
Influenza B virus
  pIC50: < 5.02

## C=C(C(=O)OCCn1cncn1)[C@@H]1CC[C@H](C)[C@@H]2CC(=O)C(C)=C2C1
Influenza A virus [1]
  pIC50: 4.08
Influenza A virus [3]
  pIC50: 4.13
[4]
  selectivity ratio: 3
[5]
  CC50: 224 µM
Influenza B virus
  pIC50: < 5.10
[6]
  selectivity ratio: 2.68

## C=C(C(=O)OCCCCBr)[C@@H]1CC[C@H](C)[C@@H]2CC(=O)C(C)=C2C1
Influenza A virus [1]
  pIC50: 4.12
[2]
  selectivity ratio: 6.2
Influenza A virus [3]
  pIC50: 4.12
[4]
  selectivity ratio: 5.6
[5]
  CC50: 420 µM
Influenza B virus
  pIC50: 4.17
[6]
  selectivity ratio: 5.6

## C=C(C(=O)OCCCCCCN1CCN(c2ccccc2)CC1)[C@@H]1CC[C@H](C)[C@@H]2CC(=O)C(C)=C2C1
Influenza A virus [1]
  pIC50: < 4.25
Influenza A virus [3]
  pIC50: < 4.25
[5]
  CC50: 394 µM
Influenza B virus
  pIC50: < 4.25

## C=C(C(=O)OCCCN1CCN(c2ccccc2)CC1)[C@@H]1CC[C@H](C)[C@@H]2CC(=O)C(C)=C2C1
Influenza A virus [1]
  pIC50: 4.19
Influenza A virus [3]
  pIC50: 4.24
[4]
  selectivity ratio: 3
[5]
  CC50: 171 µM
Influenza B virus
  pIC50: < 4.95
[6]
  selectivity ratio: 2.7

## C=C(C(=O)OCCCCCBr)[C@@H]1CC[C@H](C)[C@@H]2CC(=O)C(C)=C2C1
Influenza A virus [1]
  pIC50: 4.71
Influenza A virus [3]
  pIC50: 4.71
[4]
  selectivity ratio: 2.8
[5]
  CC50: 54 µM
Influenza B virus
  pIC50: < 4.51
[6]
  selectivity ratio: 2.8

## C=C(C(=O)OCCN1CCN(C)CC1)[C@@H]1CC[C@H](C)[C@@H]2CC(=O)C(C)=C2C1
Influenza A virus [1]
  pIC50: 3.89
Influenza A virus [3]
  pIC50: < 4.48
[5]
  CC50: 231 µM
Influenza B virus
  pIC50: < 4.48
[6]
  selectivity ratio: 1.8

## C=C(C(=O)OCCCCn1cncn1)[C@@H]1CC[C@H](C)[C@@H]2CC(=O)C(C)=C2C1
Influenza A virus [1]
  pIC50: 4.24
[2]
  selectivity ratio: 5
Influenza A virus [3]
  pIC50: 4.37
[4]
  selectivity ratio: 9
[5]
  CC50: 386 µM
Influenza B virus
  pIC50: 4.11
[6]
  selectivity ratio: 6.7

## C=C(C(=O)OCCCCCN1CCN(c2ccccc2)CC1)[C@@H]1CC[C@H](C)[C@@H]2CC(=O)C(C)=C2C1
Influenza A virus [1]
  pIC50: 4.70
Influenza A virus [3]
  pIC50: < 4.59
[5]
  CC50: 112 µM
Influenza B virus
  pIC50: < 4.59
[6]
  selectivity ratio: 5.6
